From patent publication US10750743B2, “Pyridazinone herbicides” (E.I. DU PONT DE NEMOURS AND COMPANY, priority 2015, dated 2020)

Tests used:
Assay type in all cases: in vivo
[1] = tested on: foxtail, giant (giant foxtail, Setaria faberii); test: Test A preemergence, directed soil spray, visual injury rating; details: 0 is no effect, 100 is complete control
In short: (§1)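 Compounds in a surfactant-containing solvent were applied as a directed soil spray preemergence, or postemergence to plants 2-10 cm tall at the one- to two-leaf stage, in loam-sand blend. After about 10 d in the greenhouse, injury was rated visually against untreated controls on a 0-100 scale (100 = complete control).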

[2] = tested on: barnyardgrass (Echinochloa crus-galli); test: as above; details: 0 is no effect, 100 is complete control
In short: as §1

[3] = tested on: ragweed (common ragweed, Ambrosia elatior); test: as above; details: 0 is no effect, 100 is complete control
In short: as §1

[4] = tested on: pigweed (Amaranthus retroflexus); test: as above; details: 0 is no effect, 100 is complete control
In short: as §1

[5] = tested on: kochia (Kochia scoparia); test: as above; details: 0 is no effect, 100 is complete control
In short: as §1

[6] = tested on: ryegrass, It. (Italian ryegrass, Lolium multiflorum); test: as above; details: 0 is no effect, 100 is complete control
In short: as §1

[7] = tested on: barnyardgrass (Echinochloa crus-galli); test: Test B flooded paddy test, visual rating; details: Flood, 250 g ai/ha, applied to paddy water, rated after 13 to 15 d
In short: (§2)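 Plants grown to the 2-leaf stage. At treatment, pots were flooded to 3 cm above the soil, compound was applied directly to the paddy water, and that depth was held throughout. After 13 to 15 d in the greenhouse, response was rated visually against controls on a 0 (no effect) to 100 (complete control) scale.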

[8] = tested on: ducksalad (Heteranthera limosa); test: Test B flooded paddy test, visual rating; details: Flood, 250 g ai/ha, applied to paddy water, rated after 13 to 15 d
In short: as §2

[9] = tested on: rice (Oryza sativa); test: Test B flooded paddy test, visual rating; details: Flood, 250 g ai/ha, applied to paddy water, rated after 13 to 15 d
In short: as §2

[10] = tested on: sedge, umbrella (small-flower umbrella sedge, Cyperus difformis); test: Test B flooded paddy test, visual rating; details: Flood, 250 g ai/ha, applied to paddy water, rated after 13 to 15 d
In short: as §2

[11] = tested on: foxtail, giant (giant foxtail, Setaria faberii); test: Test A postemergence application, visual injury rating; details: for Foxtail, Giant plant response rating: 0 to 100 scale, 0 no effect, 100 complete control; for Plant response rating (0 to 100 scale), Foxtail, Giant: 0 is no effect, 100 is complete control
In short: as §1

[12] = tested on: wheat (Triticum aestivum); test: as above; details: for Wheat plant response rating: 0 to 100 scale, 0 no effect, 100 complete control; for Plant response rating (0 to 100 scale), Wheat: 0 is no effect, 100 is complete control
In short: as §1

[13] = tested on: barnyardgrass (Echinochloa crus-galli); test: as above; details: 0 to 100 scale, 0 no effect, 100 complete control
In short: as §1

[14] = tested on: ragweed (common ragweed, Ambrosia elatior); test: as above; details: for Ragweed plant response rating: 0 to 100 scale, 0 no effect, 100 complete control; for Plant response rating (0 to 100 scale), Ragweed: 0 is no effect, 100 is complete control
In short: as §1

[15] = tested on: pigweed (Amaranthus retroflexus); test: as above; details: for Pigweed plant response rating: 0 to 100 scale, 0 no effect, 100 complete control; for Plant response rating (0 to 100 scale), Pigweed: 0 is no effect, 100 is complete control
In short: as §1

[16] = tested on: kochia (Kochia scoparia); test: as above; details: for Kochia plant response rating: 0 to 100 scale, 0 no effect, 100 complete control; for Plant response rating (0 to 100 scale), Kochia: 0 is no effect, 100 is complete control
In short: as §1

[17] = tested on: corn (Zea mays); test: as above; details: for Corn plant response rating: 0 to 100 scale, 0 no effect, 100 complete control; for Plant response rating (0 to 100 scale), Corn: 0 is no effect, 100 is complete control
In short: as §1

[18] = tested on: galium (catchweed bedstraw, Galium aparine); test: as above; details: for Galium plant response rating: 0 to 100 scale, 0 no effect, 100 complete control; for Plant response rating (0 to 100 scale), Galium: 0 is no effect, 100 is complete control
In short: as §1

[19] = tested on: blackgrass (Alopecurus myosuroides); test: as above; details: 0 to 100 scale, 0 no effect, 100 complete control
In short: as §1

[20] = tested on: ryegrass, It. (Italian ryegrass, Lolium multiflorum); test: as above; details: for Ryegrass, It. plant response rating: 0 to 100 scale, 0 no effect, 100 complete control; for Plant response rating (0 to 100 scale), Ryegrass, It.: 0 is no effect, 100 is complete control
In short: as §1

Compound | Plant response rating (0 to 100 scale), Foxtail, Giant ([1]; 125 g ai/ha) | Plant response rating (0 to 100 scale), Barnyardgrass ([2]; 125 g ai/ha) | Plant response rating (0 to 100 scale), Ragweed ([3]; 125 g ai/ha) | Plant response rating (0 to 100 scale), Pigweed ([4]; 125 g ai/ha) | Plant response rating (0 to 100 scale), Kochia ([5]; 125 g ai/ha) | Plant response rating (0 to 100 scale), Ryegrass, It. ([6]; 125 g ai/ha) | Barnyardgrass plant response rating (0 to 100 scale, 0 is no effect, 100 is complete control) [7] | Ducksalad plant response rating (0 to 100 scale, 0 is no effect, 100 is complete control) [8] | Rice plant response rating (0 to 100 scale, 0 is no effect, 100 is complete control) [9] | Sedge, Umbrella plant response rating (0 to 100 scale, 0 is no effect, 100 is complete control) [10] | Foxtail, Giant plant response rating ([11]; 125 g ai/ha) | Wheat plant response rating ([12]; 125 g ai/ha) | Barnyardgrass plant response rating ([13]; 125 g ai/ha) | Ragweed plant response rating ([14]; 125 g ai/ha) | Pigweed plant response rating ([15]; 125 g ai/ha) | Kochia plant response rating ([16]; 125 g ai/ha) | Corn plant response rating ([17]; 125 g ai/ha) | Galium plant response rating ([18]; 125 g ai/ha) | Blackgrass plant response rating ([19]; 125 g ai/ha) | Ryegrass, It. plant response rating ([20]; 125 g ai/ha) | other results
CCOC(=O)Oc1c(C)nn(C)c(=O)c1-c1c(CC)sc2ncccc12 [Compound 19] | 0 | 0 | 0 | 0 | 0 | 0 | 0 | 0 | 0 | 0 | 0 | 0 | 0 | 0 | 10 | 0 | 0 | 0 | 0 | 0 | Plant response rating (0 to 100 scale), Foxtail, Giant ([1]; 500 g ai/ha): 0; Plant response rating (0 to 100 scale), Barnyardgrass ([2]; 500 g ai/ha): 0; Plant response rating (0 to 100 scale), Ragweed ([3]; 500 g ai/ha): 0; Plant response rating (0 to 100 scale), Pigweed ([4]; 500 g ai/ha): 20; Plant response rating (0 to 100 scale), Kochia ([5]; 500 g ai/ha): 0; Plant response rating (0 to 100 scale), Ryegrass, It. ([6]; 500 g ai/ha): 0; Foxtail, Giant plant response rating ([11]; 500 g ai/ha): 0; Wheat plant response rating ([12]; 500 g ai/ha): 0; Barnyardgrass plant response rating ([13]; 500 g ai/ha): 0; Ragweed plant response rating ([14]; 500 g ai/ha): 0; Pigweed plant response rating ([15]; 500 g ai/ha): 30; Kochia plant response rating ([16]; 500 g ai/ha): 0; Corn plant response rating ([17]; 500 g ai/ha): 0; Galium plant response rating ([18]; 500 g ai/ha): 20; Blackgrass plant response rating ([19]; 500 g ai/ha): 0; Ryegrass, It. plant response rating ([20]; 500 g ai/ha): 0
Cc1nn(C)c(=O)c(-c2ccc(Cl)c3sccc23)c1O [Compound 63] | 0 | 0 | 0 | 0 | 20 | 20 | 0 | 0 | 0 | 0 | 0 | 0 | 0 | 0 | 50 | 60 | 0 | 90 | 0 | 10 | Plant response rating (0 to 100 scale), Foxtail, Giant ([1]; 31 g ai/ha): 0; Plant response rating (0 to 100 scale), Barnyardgrass ([2]; 31 g ai/ha): 0; Plant response rating (0 to 100 scale), Ragweed ([3]; 31 g ai/ha): 0; Plant response rating (0 to 100 scale), Pigweed ([4]; 31 g ai/ha): 0; Plant response rating (0 to 100 scale), Kochia ([5]; 31 g ai/ha): 10; Plant response rating (0 to 100 scale), Ryegrass, It. ([6]; 31 g ai/ha): 0; Plant response rating (0 to 100 scale), Foxtail, Giant ([11]; 31 g ai/ha): 0; Plant response rating (0 to 100 scale), Wheat ([12]; 31 g ai/ha): 0; Barnyardgrass plant response rating ([13]; 31 g ai/ha): 0; Plant response rating (0 to 100 scale), Ragweed ([14]; 31 g ai/ha): 0; Plant response rating (0 to 100 scale), Pigweed ([15]; 31 g ai/ha): 0; Plant response rating (0 to 100 scale), Kochia ([16]; 31 g ai/ha): 0; Plant response rating (0 to 100 scale), Corn ([17]; 31 g ai/ha): 0; Plant response rating (0 to 100 scale), Galium ([18]; 31 g ai/ha): 30; Blackgrass plant response rating ([19]; 31 g ai/ha): 0; Plant response rating (0 to 100 scale), Ryegrass, It. ([20]; 31 g ai/ha): 0
CC(=O)Oc1c(Cl)nn(C)c(=O)c1-c1nccc2ccccc12 [Compound 66] | 0 | 0 | 0 | 20 | 0 | 50 | 0 | 0 | 0 | 0 | 10 | 0 | 10 | 30 | 50 | 40 | 0 | 50 | 0 | 40 | Plant response rating (0 to 100 scale), Foxtail, Giant ([1]; 31 g ai/ha): 0; Plant response rating (0 to 100 scale), Barnyardgrass ([2]; 31 g ai/ha): 0; Plant response rating (0 to 100 scale), Ragweed ([3]; 31 g ai/ha): 0; Plant response rating (0 to 100 scale), Pigweed ([4]; 31 g ai/ha): 10; Plant response rating (0 to 100 scale), Kochia ([5]; 31 g ai/ha): 0; Plant response rating (0 to 100 scale), Ryegrass, It. ([6]; 31 g ai/ha): 0; Plant response rating (0 to 100 scale), Foxtail, Giant ([11]; 31 g ai/ha): 0; Plant response rating (0 to 100 scale), Wheat ([12]; 31 g ai/ha): 0; Barnyardgrass plant response rating ([13]; 31 g ai/ha): 0; Plant response rating (0 to 100 scale), Ragweed ([14]; 31 g ai/ha): 10; Plant response rating (0 to 100 scale), Pigweed ([15]; 31 g ai/ha): 40; Plant response rating (0 to 100 scale), Kochia ([16]; 31 g ai/ha): 0; Plant response rating (0 to 100 scale), Corn ([17]; 31 g ai/ha): 0; Plant response rating (0 to 100 scale), Galium ([18]; 31 g ai/ha): 0; Blackgrass plant response rating ([19]; 31 g ai/ha): 0; Plant response rating (0 to 100 scale), Ryegrass, It. ([20]; 31 g ai/ha): 20
COC(=O)Oc1c(C)nn(C)c(=O)c1-c1cccc2cc(C)oc12 [Compound 28] | 0 | 0 | 30 | 0 | 20 | 70 | 0 | 0 | 0 | 0 | 20 | 0 | 10 | 60 | 40 | 40 | 0 | 80 | 30 | 60 | Plant response rating (0 to 100 scale), Foxtail, Giant ([1]; 31 g ai/ha): 0; Plant response rating (0 to 100 scale), Barnyardgrass ([2]; 31 g ai/ha): 0; Plant response rating (0 to 100 scale), Ragweed ([3]; 31 g ai/ha): 0; Plant response rating (0 to 100 scale), Pigweed ([4]; 31 g ai/ha): 0; Plant response rating (0 to 100 scale), Kochia ([5]; 31 g ai/ha): 0; Plant response rating (0 to 100 scale), Ryegrass, It. ([6]; 31 g ai/ha): 20; Foxtail, Giant plant response rating ([11]; 31 g ai/ha): 0; Wheat plant response rating ([12]; 31 g ai/ha): 0; Barnyardgrass plant response rating ([13]; 31 g ai/ha): 0; Ragweed plant response rating ([14]; 31 g ai/ha): 20; Pigweed plant response rating ([15]; 31 g ai/ha): 10; Kochia plant response rating ([16]; 31 g ai/ha): 0; Corn plant response rating ([17]; 31 g ai/ha): 0; Galium plant response rating ([18]; 31 g ai/ha): 40; Blackgrass plant response rating ([19]; 31 g ai/ha): 0; Ryegrass, It. plant response rating ([20]; 31 g ai/ha): 30
